Where two headings read alike, the source gives them in different places.
How the values were obtained:
TRX-eAPP575-624 = TRX-eAPP575-624 (Homo sapiens (Human), UniProt P05067); test: SPR (Biacore) binding to APP ectodomain fragment
Procedure: The binding affinity of the compounds for the ectodomain of APP was determined using SPR. […] The eAPP was crosslinked linked to the CM5 Biacore chips (GE Healthcare).
FC1 served as a reference cell following a mock immobilization with buffer alone. For all cells, the flow rate was 10 al per min. The chip was blocked with 1M ethanolamine (pH 8.5). […] Binding traces were recorded for each dilution with a binding phase of 60 seconds and a dissociation phase of 240 seconds. Each cycle was performed at 20° C. with a constant flow rate of 20 l/min. An additional 240 seconds of buffer flow at 60 al per min across the cells was applied as a regeneration phase to facilitate complete dissociation of the compound from the protein. The sensograms were obtained by subtraction of the reference and buffer signals using the Biacore T100 Evaluation software. The binding curves were modeled with the PRISM (Graphpad Inc).

sAPP alpha = test: Secondary screen: sAPP alpha; format: cell-based; settings: for sAPP alpha: increase (↑); for sAPP (α/β): increase (↑) of ratio
sAPP beta = test: Secondary screen: sAPP beta; format: cell-based; settings: decrease (↓)
Aβ1-42 = Aβ1-42 ELISA in SH-SY5Y neuroblastoma cells; format: cell-based, human; settings: for IC50: Homo sapiens, SH-SY5Y, secondary screen
Procedure: SH-SY5Y neuroblastoma cells were seeded at 50,000 cells/well in a 96 wells plate for 24 h. Then their medium was changed for fresh medium supplemented with desired concentration of the hydantoin compound (e.g. compound 3). After 24 h, 20 al of the medium was added to 2 al of the complete protease inhibitor with 1 μM EDTA and kept at 4° C. until analysis using the ELISA assay below.
ELISA kits from Invitrogen were also used to quantify Aβ1-42 (KHB3544) in duplicate. For the Aβ 1-42 ultrasensitive ELISA, samples were diluted 1:2 (50 al CSF plus 50 μl kit-provided standard diluent buffer). Assays were performed according to manufacturer's instructions. In short, standards and samples were added to a plate pre-coated with a monoclonal capture antibody specific for the amino terminus of Hu Aβ. The samples were co-incubated with a rabbit detection antibody (Ab) specific for the carboxy terminus of the Aβ species being assayed for 3 hr at room temperature overnight at 4° (Aβ 1-42) with gentle rocking. After washing, bound rabbit Ab was detected using a horseradish peroxidase-labeled anti-rabbit secondary Ab. After washing again, bound HRP-anti rabbit Ab was detected colorimetrically (Spectramax 190, Molecular Devices) by the addition of a substrate solution. 1 mM 4-(2-Aminoethyl) benzenesulfonyl fluoride hydrochloride (AEBSF) protease inhibitor (101500, Calbiochem) was added to standards and samples.

PSGL-1-BACE1 = PSGL-1-BACE1 (Homo sapiens (Human), UniProt P56817); test: PSGL1-BACE cleavage in transfected HEK 293 cells (SEAP/lacZ); format: cell-based; settings: APP-BACE vs PSGL1-BACE cleavage
Procedure: (§1) Briefly, in order to determine the PSGL-1-BACE1 IC50 IC50 HEK 293 cells were plated in 24 well plates and transiently cotransfected with either PSGL1/lacZ or NRG1/lacZ constructs using Lipofectamine 2000; manufacturer protocol was followed. Two hours after adding the DNA-lipid complex to the cells a BACE inhibitor was added to each well, then cells were incubated overnight at 37° C. and 5% CO2. Cultured medium was collected to determine NRG1 or PSGL1, and cells were lysed to measure lacZ levels. Sigma SEAP kit standard protocol was conducted on the cultured medium to detect levels of PSGL1 or NRG1. Promega kit instructions were followed to determine lacZ concentration. The ratio of PSGL1/lacz vs [BACE inhibitor] or were plotted to determine the BACE1-IC50 on each of the substrate using GraphPad Prism 5 (FIG. 6B).

NRG1-BACE1 = NRG1-BACE1 (Homo sapiens (Human), UniProt P56817); test: NRG1-BACE cleavage in transfected HEK 293 cells (SEAP/lacZ); format: cell-based
Procedure: as §1

Aβ42 = test: Aβ lowering in NTg mice; format: in vivo; settings: 1 mpk
Procedure: Compound 2 and other hydantoins were produced (see, e.g., compounds 1-5 pharmacokinetic evaluation of these hydantoins was determined in brain uptake assays using NTg mice (see, e.g., Table 1). It was also determined that Compound 1 lowered Aβ42 in the same animals at 5 mpk, while compound 3 lowered Aβ at 1 mpk.

NRG1-BACE1, sequence (P56817 46-501): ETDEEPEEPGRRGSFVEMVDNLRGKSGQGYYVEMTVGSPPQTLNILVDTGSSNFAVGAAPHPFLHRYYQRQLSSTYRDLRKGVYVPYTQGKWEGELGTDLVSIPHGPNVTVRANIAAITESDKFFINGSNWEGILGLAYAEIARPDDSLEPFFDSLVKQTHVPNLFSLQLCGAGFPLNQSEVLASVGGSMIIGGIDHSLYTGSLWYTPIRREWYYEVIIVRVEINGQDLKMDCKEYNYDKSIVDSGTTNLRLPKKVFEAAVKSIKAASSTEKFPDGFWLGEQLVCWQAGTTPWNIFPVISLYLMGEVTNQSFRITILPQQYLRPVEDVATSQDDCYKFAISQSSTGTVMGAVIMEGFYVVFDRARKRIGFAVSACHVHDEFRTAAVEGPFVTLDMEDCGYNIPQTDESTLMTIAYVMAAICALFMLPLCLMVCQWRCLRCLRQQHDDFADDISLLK
TRX-eAPP575-624, sequence (P05067 650-699): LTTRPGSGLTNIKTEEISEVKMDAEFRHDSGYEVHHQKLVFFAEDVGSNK
PSGL-1-BACE1, sequence (P56817 46-501): as the sequence (P56817 46-501) above

Row | Compound | Kd (TRX-eAPP575-624) | sAPP alpha (sAPP alpha) | sAPP (α/β) (sAPP alpha) | sAPP beta (sAPP beta) | IC50 (Aβ1-42) | Selectivity for APP over PSGL1 (PSGL-1-BACE1) | Selectivity for APP over NRG1 (NRG1-BACE1; APP-BACE vs NRG1-BACE cleavage) | IC50 (NRG1-BACE1; secondary screen, read-out: NRG1-BACD1 IC50) | Inhibition of Aβ / Aβ42 production (Aβ1-42; SH-SY5Y cells) | Aβ lowering in vivo (Aβ42) | Kd (TRX-eAPP575-624; Table 1, SPR, read-out: APP binding Kd)
1 | CN1C(=O)C(c2ccccc2)(c2cc(F)cc(F)c2)N=C1N (stereo not drawn) [FAH-1] | 5000 nM | – | – | – | – | – | – | – | – | – | –
2 | Cc1cccc(C2(c3ccc(OC(F)F)c(C)c3)N=C(N)N(C)C2=O)c1 (stereo not drawn) [FAH-27, 2-amino-4-(4-(difluoromethoxy)-3-methylphenyl)-1-methyl-4-(m-tolyl)-1H-imidazol-5(4H)-one] | – | ↑ > 30% | ↑ > 100% | ↓ < 30% | – | – | – | – | – | – | –
3 | Cc1cc(C2(c3cccc(F)c3)N=C(N)N(C)C2=O)ccc1OC(F)F (stereo not drawn) [FAH-17, 2-amino-4-(4-(difluoromethoxy)-3-methylphenyl)-4-(3-fluorophenyl)-1-methyl-1H-imidazol-5(4H)-one] | – | ↑ > 20% | ↑ > 100% | ↓ < 50% | > 1000 nM | > 200 fold | > 10 fold | > 1000 nM | – | – | –
4 | Cc1cc(C2(c3cccc(C(F)(F)F)c3)N=C(N)N(C)C2=O)ccc1OC(F)F (stereo not drawn) [FAH-28] | – | ↑ > 20% | ↑ > 50% | ↓ < 20% | – | – | – | – | – | – | –
5 | Cc1cc(C2(c3cc(F)cc(F)c3)N=C(N)N(C)C2=O)ccc1OC(F)F (stereo not drawn) [FAH-3, 2-amino-4-(4-(difluoromethoxy)-3-methylphenyl)-4-(3,5-difluorophenyl)-1-methyl-1H-imidazol-5(4H)-one] | – | ↑ > 10% | ↑≈10% | ↓ < 20% | > 1000 nM | – | – | – | inhibition of Aβ production | lowered Aβ | 300 nM
6 | Cc1cc(F)cc(C2(c3ccc(OC(F)F)c(C)c3)N=C(N)N(C)C2=O)c1 (stereo not drawn) [FAH-22, 2-amino-4-(4-(difluoromethoxy)-3-methylphenyl)-4-(3-fluoro-5-methylphenyl)-1-methyl-1H-imidazol-5(4H)-one] | – | ↑ > 10% | ↑≈50% | ↓ < 20% | – | – | – | – | – | – | –
7 | Cc1cc(C2(c3cccc(Cl)c3)N=C(N)N(C)C2=O)ccc1OC(F)F (stereo not drawn) [FAH-23, 2-amino-4-(3-chlorophenyl)-4-(4-(difluoromethoxy)-3-methylphenyl)-1-methyl-1H-imidazol-5(4H)-one] | – | ↑ > 20% | ↑ > 50% | ↓ < 20% | – | – | – | – | – | – | –
